Reference: patent US20110178396A1, “Nicotinamide Derivatives” (CRC FOR BIOMEDICAL IMAGING DEVELOPMENT LTD., priority 2008, published 2011)

Test system: B16F0 melanoma tumour
Experiment: Biodistribution in B16 melanoma bearing mice
Assay type: in vivo, C57BL/6J mice
Settings: B16 melanoma bearing mice
Outline: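 B16F0 tumours in C57BL/6J mice (day 11) and A375 xenografts in BALB/c nude mice (day 25), subcutaneous left flank. Radiotracer given i.v. by tail vein (18F 0.5–1.5 MBq; 123I 0.37–0.74 MBq); n=5 per time point, 15 min–6 h (18F) or 1–72 h (123I). Organs γ-counted as % ID/g.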

CCN(CC)CCNC(=O)c1ccc(F)nc1 [[^18F]MEL2, 6-Fluoro-N-[2-(diethylamino)ethyl]nicotinamide]
uptake BLOOD (15 min): 2.048 % ID/g
uptake BONE (15 min): 3.493 % ID/g
uptake BRAIN (15 min): 2.471 % ID/g
uptake EYES (15 min): 14.678 % ID/g
uptake GIT (15 min): 5.421 % ID/g
uptake HEART (15 min): 3.153 % ID/g
uptake KIDNEY (15 min): 14.117 % ID/g
uptake LIVER (15 min): 10.148 % ID/g
uptake LUNGS (15 min): 5.616 % ID/g
uptake MUSCLE (15 min): 3.796 % ID/g
uptake SKIN (15 min): 2.214 % ID/g
uptake SPLEEN (15 min): 8.585 % ID/g
uptake STOMACH (15 min): 9.344 % ID/g
uptake THYROID (15 min): 5.515 % ID/g
uptake TUMOUR (15 min): 6.970 % ID/g
uptake BLOOD (30 min): 1.218 % ID/g
uptake BONE (30 min): 2.078 % ID/g
uptake BRAIN (30 min): 1.997 % ID/g
uptake EYES (30 min): 15.976 % ID/g
uptake GIT (30 min): 3.855 % ID/g
uptake HEART (30 min): 1.902 % ID/g
uptake KIDNEY (30 min): 9.595 % ID/g
uptake LIVER (30 min): 5.825 % ID/g
uptake LUNGS (30 min): 2.922 % ID/g
uptake MUSCLE (30 min): 2.240 % ID/g
uptake SKIN (30 min): 1.473 % ID/g
uptake SPLEEN (30 min): 7.225 % ID/g
uptake STOMACH (30 min): 6.639 % ID/g
uptake THYROID (30 min): 2.537 % ID/g
uptake TUMOUR (30 min): 8.582 % ID/g
uptake BLOOD (1 h): 0.619 % ID/g
uptake BONE (1 h): 1.368 % ID/g
uptake BRAIN (1 h): 1.096 % ID/g
uptake EYES (1 h): 18.808 % ID/g
uptake GIT (1 h): 2.102 % ID/g
uptake HEART (1 h): 0.977 % ID/g
uptake KIDNEY (1 h): 3.446 % ID/g
uptake LIVER (1 h): 2.813 % ID/g
uptake LUNGS (1 h): 1.632 % ID/g
uptake MUSCLE (1 h): 1.248 % ID/g
uptake SKIN (1 h): 0.766 % ID/g
uptake SPLEEN (1 h): 2.393 % ID/g
uptake STOMACH (1 h): 3.370 % ID/g
uptake THYROID (1 h): 3.327 % ID/g
uptake TUMOUR (1 h): 8.376 % ID/g
uptake BLOOD (2 h): 0.147 % ID/g
uptake BONE (2 h): 0.578 % ID/g
uptake BRAIN (2 h): 0.270 % ID/g
uptake EYES (2 h): 17.281 % ID/g
uptake GIT (2 h): 0.708 % ID/g
uptake HEART (2 h): 0.246 % ID/g
uptake KIDNEY (2 h): 0.676 % ID/g
uptake LIVER (2 h): 0.693 % ID/g
uptake LUNGS (2 h): 0.386 % ID/g
uptake MUSCLE (2 h): 0.276 % ID/g
uptake SKIN (2 h): 0.356 % ID/g
uptake SPLEEN (2 h): 1.848 % ID/g
uptake STOMACH (2 h): 1.472 % ID/g
uptake THYROID (2 h): 0.609 % ID/g
uptake TUMOUR (2 h): 9.416 % ID/g
uptake BLOOD (3 h): 0.111 % ID/g
uptake BONE (3 h): 0.624 % ID/g
uptake BRAIN (3 h): 0.150 % ID/g
uptake EYES (3 h): 17.276 % ID/g
uptake GIT (3 h): 0.541 % ID/g
uptake HEART (3 h): 0.166 % ID/g
uptake KIDNEY (3 h): 0.394 % ID/g
uptake LIVER (3 h): 0.491 % ID/g
uptake LUNGS (3 h): 0.253 % ID/g
uptake MUSCLE (3 h): 0.201 % ID/g
uptake SKIN (3 h): 0.172 % ID/g
uptake SPLEEN (3 h): 0.890 % ID/g
uptake STOMACH (3 h): 0.828 % ID/g
uptake THYROID (3 h): 0.488 % ID/g
uptake TUMOUR (3 h): 7.753 % ID/g
uptake BLOOD (6 h): 0.020 % ID/g
uptake BONE (6 h): 0.515 % ID/g
uptake BRAIN (6 h): 0.039 % ID/g
uptake EYES (6 h): 15.591 % ID/g
uptake GIT (6 h): 0.135 % ID/g
uptake HEART (6 h): 0.054 % ID/g
uptake KIDNEY (6 h): 0.075 % ID/g
uptake LIVER (6 h): 0.123 % ID/g
uptake LUNGS (6 h): 0.066 % ID/g
uptake MUSCLE (6 h): 0.032 % ID/g
uptake SKIN (6 h): 0.041 % ID/g
uptake SPLEEN (6 h): 0.470 % ID/g
uptake STOMACH (6 h): 0.193 % ID/g
uptake THYROID (6 h): 0.168 % ID/g
uptake TUMOUR (6 h): 7.747 % ID/g
uptake in melanin containing tissue (tumour and eyes) (six hour period): high uptake
washout in all other tissue (six hour period): rapid washout
